Patent US20020111274A1, “1-alkyl-3-[1-(substituted phenyl) benzotriazol-6-yl] uracils” (BASF Aktiengesellschaft, priority 2000, published 2002)

Experiments:
Design in all cases: scale not given here
CASOB Sicklepod [1] = assay: Preemergence herbicidal evaluation, CASOB; type: in vivo, Cassia obtusifolia, L.; conditions: preemergence
In short: (§1)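 Seeds mixed with potting soil were planted on about one inch of soil in cups, then sprayed with the test compound in aqueous acetone at roughly 0.013 to 0.800 kg per hectare. Plants were kept under standard greenhouse care and injury was rated four to five weeks after treatment.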

GLXMAW Soybean, Williams [2] = assay: Preemergence herbicidal evaluation, GLXMAW; type: in vivo, Glycine max, (L.) Merr. cv Williams; conditions: preemergence
In short: as §1

ORYSAT Rice, Tebonnet [3] = assay: Postemergence herbicidal evaluation, ORYSAT; type: in vivo, Oryza sativa, (L.); conditions: postemergence spray, rated about two-three weeks after treatment
In short: (§2)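 Visual injury rating ~2–3 wk post-spray; replicate tests averaged. Two-week-old seedlings; foliar spray at 40 psi; 0.006–0.400 kg ai/ha in 80/20 acetone/water + 1.0% methylated seed oil.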

CASOB Sicklepod [4] = assay: Postemergence herbicidal evaluation, CASOB; type: in vivo, Cassia obtusifolia, L.; conditions: postemergence spray, rated about two-three weeks after treatment
In short: as §2

[5] = system: TRZAWR Wheat, Winter, cv Riband; assay: Preemergence herbicidal evaluation, TRZAWR; type: in vivo, Triticum aestivum; conditions: preemergence
In short: as §1

ZEAMX Corn, Field [6] = assay: Preemergence herbicidal evaluation, ZEAMX; type: in vivo, Zea mays, L. (Sammel-Bezeichnung); conditions: preemergence
In short: as §1

GLXMAW Soybean, Williams [7] = assay: Postemergence herbicidal evaluation, GLXMAW; type: in vivo, Glycine max, (L.) Merr. cv Williams; conditions: postemergence spray, rated about two-three weeks after treatment
In short: as §2

AMBEL Ragweed, Common [8] = assay: Postemergence herbicidal evaluation, AMBEL; type: in vivo, Ambrosia artemisifolia, L.; conditions: postemergence spray, rated about two-three weeks after treatment
In short: as §2

SETVI Foxtail, Green [9] = assay: Postemergence herbicidal evaluation, SETVI; type: in vivo, Setaria viridis, (L.) Beau; conditions: postemergence spray, rated about two-three weeks after treatment
In short: as §2

SETVI Foxtail, Green [10] = assay: Preemergence herbicidal evaluation, SETVI; type: in vivo, Setaria viridis, (L.) Beau; conditions: preemergence
In short: as §1

ABUTH Velvetleaf [11] = assay: Postemergence herbicidal evaluation, ABUTH; type: in vivo, Abutilon theophrasti, Medic.; conditions: postemergence spray, rated about two-three weeks after treatment
In short: as §2

AMBEL Ragweed, Common [12] = assay: Preemergence herbicidal evaluation, AMBEL; type: in vivo, Ambrosia artemisifolia, L.; conditions: preemergence
In short: as §1

GALAP Galium [13] = assay: Postemergence herbicidal evaluation, GALAP; type: in vivo, Galium aparine; conditions: postemergence spray, rated about two-three weeks after treatment
In short: as §2

ORYSAT Rice, Tebonnet [14] = assay: Preemergence herbicidal evaluation, ORYSAT; type: in vivo, Oryza sativa, (L.); conditions: preemergence
In short: as §1

[15] = system: IPOHE Morningglory, Ivyleaf; assay: Preemergence herbicidal evaluation, IPOHE; type: in vivo, Ipomoea hederacea, (L.) Jacq.; conditions: preemergence
In short: as §1

[16] = system: IPOHE Morningglory, Ivyleaf; assay: Postemergence herbicidal evaluation, IPOHE; type: in vivo, Ipomoea hederacea, (L.) Jacq.; conditions: postemergence spray, rated about two-three weeks after treatment
In short: as §2

GALAP Galium [17] = assay: Preemergence herbicidal evaluation, GALAP; type: in vivo, Galium aparine; conditions: preemergence
In short: as §1

ECHOG Barnyardgrass [18] = assay: Preemergence herbicidal evaluation, ECHOG; type: in vivo, Echinochloa crus-galli, (L.) Beau; conditions: preemergence
In short: as §1

ABUTH Velvetleaf [19] = assay: Preemergence herbicidal evaluation, ABUTH; type: in vivo, Abutilon theophrasti, Medic.; conditions: preemergence
In short: as §1

ZEAMX Corn, Field [20] = assay: Postemergence herbicidal evaluation, ZEAMX; type: in vivo, Zea mays, L. (Sammel-Bezeichnung); conditions: postemergence spray, rated about two-three weeks after treatment
In short: as §2

[21] = system: CHEAL Lambsquarters, Common; assay: Preemergence herbicidal evaluation, CHEAL; type: in vivo, Chenopodium album, L.; conditions: preemergence
In short: as §1

ECHOG Barnyardgrass [22] = assay: Postemergence herbicidal evaluation, ECHOG; type: in vivo, Echinochloa crus-galli, (L.) Beau; conditions: postemergence spray, rated about two-three weeks after treatment
In short: as §2

[23] = system: CHEAL Lambsquarters, Common; assay: Postemergence herbicidal evaluation, CHEAL; type: in vivo, Chenopodium album, L.; conditions: postemergence spray, rated about two-three weeks after treatment
In short: as §2

[24] = system: TRZAWR Wheat, Winter, cv Riband; assay: Postemergence herbicidal evaluation, TRZAWR; type: in vivo, Triticum aestivum; conditions: postemergence spray, rated about two-three weeks after treatment
In short: as §2

CC(C)c1ccc(-n2nnc3cc(F)c(-n4c(=O)cc(C(F)(F)F)n(C)c4=O)cc32)cc1 [Example 21]
1.5: CASOB herbicidal rating (CASOB Sicklepod [1]; rate 0.062 kg/ha) | IPOHE herbicidal rating ([15]; rate 0.032 kg/ha)
0.0: CASOB herbicidal rating (CASOB Sicklepod [1]; rate 0.016 kg/ha) | CASOB herbicidal rating (CASOB Sicklepod [1]; rate 0.032 kg/ha) | GLXMAW herbicidal rating (GLXMAW Soybean, Williams [2]; rate 0.016 kg/ha) | GLXMAW herbicidal rating (GLXMAW Soybean, Williams [2]; rate 0.032 kg/ha) | Postemergence herbicidal rating CASOB (CASOB Sicklepod [4]; 0.008 kg/ha) | Postemergence herbicidal rating CASOB (CASOB Sicklepod [4]; 0.016 kg/ha) | TRZAWR herbicidal rating ([5]; rate 0.016 kg/ha) | TRZAWR herbicidal rating ([5]; rate 0.032 kg/ha) | TRZAWR herbicidal rating ([5]; rate 0.062 kg/ha) | ZEAMX herbicidal rating (ZEAMX Corn, Field [6]; rate 0.016 kg/ha) | ZEAMX herbicidal rating (ZEAMX Corn, Field [6]; rate 0.032 kg/ha) | Postemergence herbicidal rating SETVI (SETVI Foxtail, Green [9]; 0.008 kg/ha) | Postemergence herbicidal rating SETVI (SETVI Foxtail, Green [9]; 0.016 kg/ha) | SETVI herbicidal rating (SETVI Foxtail, Green [10]; rate 0.016 kg/ha) | AMBEL herbicidal rating (AMBEL Ragweed, Common [12]; rate 0.016 kg/ha) | ORYSAT herbicidal rating (ORYSAT Rice, Tebonnet [14]; rate 0.016 kg/ha) | ORYSAT herbicidal rating (ORYSAT Rice, Tebonnet [14]; rate 0.032 kg/ha) | ORYSAT herbicidal rating (ORYSAT Rice, Tebonnet [14]; rate 0.062 kg/ha) | ORYSAT herbicidal rating (ORYSAT Rice, Tebonnet [14]; rate 0.125 kg/ha) | IPOHE herbicidal rating ([15]; rate 0.016 kg/ha) | GALAP herbicidal rating (GALAP Galium [17]; rate 0.016 kg/ha) | GALAP herbicidal rating (GALAP Galium [17]; rate 0.032 kg/ha) | GALAP herbicidal rating (GALAP Galium [17]; rate 0.062 kg/ha) | GALAP herbicidal rating (GALAP Galium [17]; rate 0.125 kg/ha) | ECHCG herbicidal rating (ECHOG Barnyardgrass [18]; rate 0.016 kg/ha) | ECHCG herbicidal rating (ECHOG Barnyardgrass [18]; rate 0.032 kg/ha) | ABUTH herbicidal rating (ABUTH Velvetleaf [19]; rate 0.016 kg/ha) | Postemergence herbicidal rating ECHCG (ECHOG Barnyardgrass [22]; 0.008 kg/ha) | Postemergence herbicidal rating ECHCG (ECHOG Barnyardgrass [22]; 0.016 kg/ha) | Postemergence herbicidal rating ECHCG (ECHOG Barnyardgrass [22]; 0.032 kg/ha) | Postemergence herbicidal rating ECHCG (ECHOG Barnyardgrass [22]; 0.062 kg/ha)
7.5: AMBEL herbicidal rating (AMBEL Ragweed, Common [12]; rate 0.125 kg/ha)
6.5: SETVI herbicidal rating (SETVI Foxtail, Green [10]; rate 0.062 kg/ha)
5.5: Postemergence herbicidal rating GLXMAW (GLXMAW Soybean, Williams [7]; 0.032 kg/ha) | Postemergence herbicidal rating GLXMAW (GLXMAW Soybean, Williams [7]; 0.062 kg/ha)
0.5: GLXMAW herbicidal rating (GLXMAW Soybean, Williams [2]; rate 0.062 kg/ha)
5.0: Postemergence herbicidal rating GLXMAW (GLXMAW Soybean, Williams [7]; 0.016 kg/ha) | Postemergence herbicidal rating SETVI (SETVI Foxtail, Green [9]; 0.032 kg/ha) | Postemergence herbicidal rating SETVI (SETVI Foxtail, Green [9]; 0.062 kg/ha) | Postemergence herbicidal rating ZEAMX (ZEAMX Corn, Field [20]; 0.062 kg/ha)
3.0: Postemergence herbicidal rating ORYSAT (ORYSAT Rice, Tebonnet [3]; 0.008 kg/ha) | AMBEL herbicidal rating (AMBEL Ragweed, Common [12]; rate 0.032 kg/ha)
4.5: Postemergence herbicidal rating GLXMAW (GLXMAW Soybean, Williams [7]; 0.008 kg/ha) | ABUTH herbicidal rating (ABUTH Velvetleaf [19]; rate 0.032 kg/ha) | Postemergence herbicidal rating ZEAMX (ZEAMX Corn, Field [20]; 0.008 kg/ha) | Postemergence herbicidal rating ZEAMX (ZEAMX Corn, Field [20]; 0.016 kg/ha) | Postemergence herbicidal rating ZEAMX (ZEAMX Corn, Field [20]; 0.032 kg/ha)
4.0: Postemergence herbicidal rating GALAP (GALAP Galium [13]; 0.016 kg/ha) | Postemergence herbicidal rating GALAP (GALAP Galium [13]; 0.032 kg/ha) | Postemergence herbicidal rating CHEAL ([23]; 0.016 kg/ha) | Postemergence herbicidal rating TRZAWR ([24]; 0.016 kg/ha) | Postemergence herbicidal rating TRZAWR ([24]; 0.032 kg/ha) | Postemergence herbicidal rating TRZAWR ([24]; 0.062 kg/ha)
1.0: GLXMAW herbicidal rating (GLXMAW Soybean, Williams [2]; rate 0.125 kg/ha) | Postemergence herbicidal rating CASOB (CASOB Sicklepod [4]; 0.032 kg/ha) | TRZAWR herbicidal rating ([5]; rate 0.125 kg/ha) | ZEAMX herbicidal rating (ZEAMX Corn, Field [6]; rate 0.062 kg/ha) | ECHCG herbicidal rating (ECHOG Barnyardgrass [18]; rate 0.062 kg/ha)
9.0: Postemergence herbicidal rating AMBEL (AMBEL Ragweed, Common [8]; 0.016 kg/ha) | Postemergence herbicidal rating AMBEL (AMBEL Ragweed, Common [8]; 0.032 kg/ha) | Postemergence herbicidal rating AMBEL (AMBEL Ragweed, Common [8]; 0.062 kg/ha) | SETVI herbicidal rating (SETVI Foxtail, Green [10]; rate 0.125 kg/ha) | Postemergence herbicidal rating ABUTH (ABUTH Velvetleaf [11]; 0.008 kg/ha) | Postemergence herbicidal rating ABUTH (ABUTH Velvetleaf [11]; 0.016 kg/ha) | Postemergence herbicidal rating ABUTH (ABUTH Velvetleaf [11]; 0.032 kg/ha) | Postemergence herbicidal rating ABUTH (ABUTH Velvetleaf [11]; 0.062 kg/ha) | Postemergence herbicidal rating GALAP (GALAP Galium [13]; 0.062 kg/ha) | Postemergence herbicidal rating IPOHE ([16]; 0.008 kg/ha) | Postemergence herbicidal rating IPOHE ([16]; 0.016 kg/ha) | Postemergence herbicidal rating IPOHE ([16]; 0.062 kg/ha) | ABUTH herbicidal rating (ABUTH Velvetleaf [19]; rate 0.125 kg/ha) | CHEAL herbicidal rating ([21]; rate 0.016 kg/ha) | CHEAL herbicidal rating ([21]; rate 0.032 kg/ha) | CHEAL herbicidal rating ([21]; rate 0.062 kg/ha) | CHEAL herbicidal rating ([21]; rate 0.125 kg/ha) | Postemergence herbicidal rating CHEAL ([23]; 0.032 kg/ha) | Postemergence herbicidal rating CHEAL ([23]; 0.062 kg/ha)
3.5: Postemergence herbicidal rating ORYSAT (ORYSAT Rice, Tebonnet [3]; 0.016 kg/ha) | Postemergence herbicidal rating ORYSAT (ORYSAT Rice, Tebonnet [3]; 0.032 kg/ha) | Postemergence herbicidal rating ORYSAT (ORYSAT Rice, Tebonnet [3]; 0.062 kg/ha) | ZEAMX herbicidal rating (ZEAMX Corn, Field [6]; rate 0.125 kg/ha) | AMBEL herbicidal rating (AMBEL Ragweed, Common [12]; rate 0.062 kg/ha) | IPOHE herbicidal rating ([15]; rate 0.125 kg/ha) | ECHCG herbicidal rating (ECHOG Barnyardgrass [18]; rate 0.125 kg/ha) | Postemergence herbicidal rating TRZAWR ([24]; 0.008 kg/ha)
6.0: Postemergence herbicidal rating IPOHE ([16]; 0.032 kg/ha) | ABUTH herbicidal rating (ABUTH Velvetleaf [19]; rate 0.062 kg/ha)
8.0: Postemergence herbicidal rating CHEAL ([23]; 0.008 kg/ha)
2.0: CASOB herbicidal rating (CASOB Sicklepod [1]; rate 0.125 kg/ha) | Postemergence herbicidal rating CASOB (CASOB Sicklepod [4]; 0.062 kg/ha) | Postemergence herbicidal rating AMBEL (AMBEL Ragweed, Common [8]; 0.008 kg/ha) | SETVI herbicidal rating (SETVI Foxtail, Green [10]; rate 0.032 kg/ha) | Postemergence herbicidal rating GALAP (GALAP Galium [13]; 0.008 kg/ha) | IPOHE herbicidal rating ([15]; rate 0.062 kg/ha)
